The results in this text go back to patent US20050228016A1, “TETRAHYDROQUINOLINES FOR MODULATING THE EXPRESSION OF EXOGENOUS GENES VIA AN ECDYSONE RECEPTOR COMPLEX” (priority 2002, published 2005).

The structures appear in SMILES notation.

The first data set deals with T1, Gal4DBD/AaEcR (DEF) (Aedes aegypti, UniProt P49880).
T1 construct: The wildtype D, E, and F domains from mosquito Aedes aegypti EcR; expressed in transfected cells; host or cells: 3T3 cells
T1 sequence (P28704 286-520 A311G/G315S/G445S/I449V): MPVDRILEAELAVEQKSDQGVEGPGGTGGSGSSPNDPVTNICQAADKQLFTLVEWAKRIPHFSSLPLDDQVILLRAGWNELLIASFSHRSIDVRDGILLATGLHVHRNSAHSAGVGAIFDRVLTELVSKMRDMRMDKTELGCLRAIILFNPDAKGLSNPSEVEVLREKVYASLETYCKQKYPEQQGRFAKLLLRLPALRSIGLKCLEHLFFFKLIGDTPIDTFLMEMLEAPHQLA
T1 sequence (P49880 405-776): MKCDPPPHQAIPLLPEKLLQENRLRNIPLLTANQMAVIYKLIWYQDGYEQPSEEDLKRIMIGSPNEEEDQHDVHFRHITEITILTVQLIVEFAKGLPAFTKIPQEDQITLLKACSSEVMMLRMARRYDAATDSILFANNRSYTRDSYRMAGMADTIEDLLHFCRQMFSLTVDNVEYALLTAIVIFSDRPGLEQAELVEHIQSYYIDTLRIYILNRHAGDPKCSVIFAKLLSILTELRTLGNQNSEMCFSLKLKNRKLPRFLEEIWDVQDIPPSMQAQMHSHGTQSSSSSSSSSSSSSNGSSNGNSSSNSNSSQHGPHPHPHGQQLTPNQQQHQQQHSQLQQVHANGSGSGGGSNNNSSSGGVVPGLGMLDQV
Briefly: cell-based. Type of data set: cell-based. Particulars: 33 μM; 3T3 cells; 48 h; average of two wells. Here is the method: 3T3 cells were trypsinized and plated at 2.5×10^3 cells/well on a 96-well plate. After incubation for 24 h at 37° C. under 5% CO2, cells were transfected with the Gal4DBD/AaEcR (DEF) gene expression cassette and the reporter plasmid, pFRLuc, containing a 5× GAL4 response element and the firefly luciferase gene in serum free media using Superfect (Qiagen). After transfection for 4 h at 37° C., the cells were treated with ligand in serum media. […] Single dose testing was performed at 33 μM.
In the case of `Cc1ccc(C(=O)N2c3ccccc3C(Nc3cccc(C)c3)CC2C)cc1` (mixture of isomers) [Compound I-44], the “Fold Induction Average, AA_3T3V1 Assay 33 μM” value (from here on “Fold Induction Average”) is 26 fold.

Regarding `COc1cccc(NC2CC(C)N(C(=O)c3ccc(C)cc3)c3ccccc32)c1` (mixture of isomers) [Compound I-46], the “Fold Induction Average” value was 8 fold.

For the compound `Cc1ccc(C(=O)N2c3cc(Cl)ccc3C(Nc3ccc(F)cc3)CC2C)cc1F` (mixture of isomers) [Compound I-48], the “Fold Induction Average” value is given as 19 fold.

In the case of `CCCCCCCC(=O)N1c2ccccc2[C@@H](Nc2ccccc2)C[C@@H]1C` (relative stereo) [Compound I-2], the “Fold Induction Average” value is on record as 49 fold.

On to `CCCCC(=O)N1c2ccccc2[C@@H](Nc2ccccc2)C[C@@H]1C` (relative stereo) [Compound I-3], for which the “Fold Induction Average” value is given as 252 fold.

In the case of `C[C@H]1C[C@@H](Nc2ccccc2)c2ccccc2N1C(=O)c1ccc(F)c(F)c1` (relative stereo) [Compound I-18], the “Fold Induction Average” value is 83 fold.

On to `C[C@H]1C[C@@H](Nc2ccccc2)c2ccccc2N1C(=O)c1ccc(C(F)(F)F)c(F)c1` (relative stereo) [Compound I-20], for which the “Fold Induction Average” value was found to be 47 fold.

Consider `C[C@H]1C[C@@H](Nc2ccccc2)c2ccccc2N1C(=O)c1ccc(Cl)cc1` (relative stereo) [Compound I-29], for which the “Fold Induction Average” value worked out at 61 fold.

`COC(=O)c1ccc(C(=O)N2c3ccccc3[C@H](Nc3ccccc3)C[C@@H]2C)cc1` (relative stereo) [Compound I-30]: the “Fold Induction Average” value stood at 9 fold.

Regarding `CCCCCCCCC(=O)N1c2ccccc2[C@@H](Nc2ccccc2)C[C@@H]1C` (relative stereo) [Compound I-127], the “Fold Induction Average” value is 22 fold.

Take `Cc1ccc(N[C@H]2C[C@H](C)N(C(=O)Nc3cccc(Cl)c3)c3ccc(C)cc32)cc1` (relative stereo) [Compound I-218]: the “Fold Induction Average” value is recorded as 6 fold.

As to `Cc1ccc(NC(=O)N2c3ccc(C)cc3[C@@H](Nc3ccc(C)cc3)C[C@@H]2C)cc1` (relative stereo) [Compound I-219], the “Fold Induction Average” value was determined as 3 fold.

As for `C[C@H]1C[C@H](Nc2ccc(F)cc2)c2cc(F)ccc2N1C(=O)Nc1ccccc1` (relative stereo) [Compound I-221], the “Fold Induction Average” value turned out to be 1027 fold.

Take `C[C@H]1C[C@H](Nc2ccc(F)cc2)c2cc(F)ccc2N1C(=O)Nc1ccc(Cl)cc1` (relative stereo) [Compound I-222]: the “Fold Induction Average” value is on record as 939 fold.

For the compound `C[C@H]1C[C@H](Nc2ccc(F)cc2)c2cc(F)ccc2N1C(=O)Nc1cccc(Cl)c1` (relative stereo) [Compound I-223], the “Fold Induction Average” value amounted to 1414 fold.

Turning to `Cc1ccc(NC(=O)N2c3ccc(F)cc3[C@@H](Nc3ccc(F)cc3)C[C@@H]2C)cc1` (relative stereo) [Compound I-224], the “Fold Induction Average” value is recorded as 1245 fold.

In the case of `Cc1cccc(NC(=O)N2c3ccc(F)cc3[C@@H](Nc3ccc(F)cc3)C[C@@H]2C)c1` (relative stereo) [Compound I-225], the “Fold Induction Average” value is listed as 1561 fold.

As for `Cc1ccc(NC2CC(C)N(C(=O)c3ccc(Cl)cc3)c3ccc(C)cc32)cc1` (centres unmarked) [Compound I-32], the “Fold Induction Average” value is 1 fold.

For `Cc1ccc(NC2CC(C)N(C(=O)c3ccc(C(F)(F)F)c(F)c3)c3ccc(C)cc32)cc1` (centres unmarked) [Compound I-49], the “Fold Induction Average” value is reported as 3 fold.

With `Cc1ccc(NC2CC(C)N(C(=O)c3ccccc3F)c3ccc(C)cc32)cc1` (centres unmarked) [Compound I-51], the “Fold Induction Average” value is reported as 4 fold.

As to `Cc1ccc(NC2CC(C)N(C(=O)c3ccccc3C)c3ccc(C)cc32)cc1` (centres unmarked) [Compound I-52], the “Fold Induction Average” value is recorded as 19 fold.

As to `CCc1ccc(C(=O)N2c3ccccc3C(Nc3ccccc3)CC2C)cc1` (centres unmarked) [Compound I-59], the “Fold Induction Average” value stood at 4 fold.

Take `Cc1ccc(NC2CC(C)N(C(=O)c3ccc(C)cc3)c3ccc(C)cc32)cc1` (centres unmarked) [Compound I-99]: the “Fold Induction Average” value stood at 2 fold.

As for `Cc1ccc(NC2CC(C)N(C(=O)c3ccccc3)c3ccc(C)cc32)cc1` (centres unmarked) [Compound I-100], the “Fold Induction Average” value is recorded as 2 fold.

On to `CCc1c(OC)cccc1C(=O)N1c2ccc(C)cc2C(Nc2ccc(C)cc2)CC1C` (centres unmarked) [Compound I-112], for which the “Fold Induction Average” value was 194 fold.

Turning to `CC1CC(Nc2ccc(F)cc2)c2cc(F)ccc2N1C(=O)c1ccno1` (centres unmarked) [Compound I-114], the “Fold Induction Average” value is 1421 fold.

With `CC1CC(Nc2ccc(F)cc2)c2cc(F)ccc2N1C(=O)c1ccc(Cl)c(F)c1` (centres unmarked) [Compound I-115], the “Fold Induction Average” value turned out to be 643 fold.

Regarding `CC1CC(Nc2ccc(F)cc2)c2cc(F)ccc2N1C(=O)c1ccnc(Cl)c1` (centres unmarked) [Compound I-116], the “Fold Induction Average” value was determined as 1100 fold.

`CCc1c(OC)cccc1C(=O)N1c2ccc(F)cc2C(Nc2ccc(F)cc2)CC1C` (centres unmarked) [Compound I-117]: the “Fold Induction Average” value amounted to 1256 fold.

For the compound `CC1CC(Nc2ccccc2)c2ccccc2N1C(=O)C=Cc1ccco1` (centres unmarked) [Compound I-121], the “Fold Induction Average” value turned out to be 81 fold.

On to `CC1CC(Nc2ccccc2)c2ccccc2N1C(=O)c1cccs1` (centres unmarked) [Compound I-122], for which the “Fold Induction Average” value is on record as 5 fold.

`CC(=O)N(c1ccccc1)C1CC(C)N(C(=O)c2ccc(C(C)(C)C)cc2)c2ccccc21` (centres unmarked) [Compound I-123]: the “Fold Induction Average” value is 1 fold.

Regarding `CC(=O)N1c2ccccc2C(N(C(=O)c2ccc(F)cc2)c2ccccc2)CC1C` (centres unmarked) [Compound I-128], the “Fold Induction Average” value worked out at 1 fold.

With `CC1CC(Nc2ccccc2)c2ccccc2N1C(=O)COc1ccccc1Cl` (centres unmarked) [Compound I-129], the “Fold Induction Average” value came out at 1 fold.

Turning to `CC1CC(Nc2ccccc2)c2ccccc2N1C(=O)Cc1ccccc1` (centres unmarked) [Compound I-130], the “Fold Induction Average” value was 1 fold.

Regarding `CC(=O)N1c2ccccc2C(N(C(=O)c2ccc(C)cc2)c2ccccc2)CC1C` (centres unmarked) [Compound I-132], the “Fold Induction Average” value turned out to be 1 fold.

Consider `CCCCCC(=O)N(c1ccccc1)C1CC(C)N(C(=O)c2cccc(OC)c2)c2ccccc21` (centres unmarked) [Compound I-133], for which the “Fold Induction Average” value was 1 fold.

As for `CC1CC(N(C(=O)c2cccc(F)c2)c2ccccc2)c2ccccc2N1C(=O)c1cccc(F)c1` (centres unmarked) [Compound I-136], the “Fold Induction Average” value was determined as 1 fold.

Consider `CC1CC(Nc2ccccc2)c2ccccc2N1C(=O)c1ccco1` (centres unmarked) [Compound I-139], for which the “Fold Induction Average” value stood at 1 fold.

On to `CCOC(=O)C(=O)N1c2ccccc2C(N(C(=O)C(=O)OCC)c2ccccc2)CC1C` (centres unmarked) [Compound I-145], for which the “Fold Induction Average” value is reported as 47 fold.

Consider `COc1ccc(C=CC(=O)N2c3ccccc3C(N(C(C)=O)c3ccccc3)CC2C)cc1` (centres unmarked) [Compound I-150], for which the “Fold Induction Average” value amounted to 1 fold.

Take `COc1ccc(C(=O)N2c3ccccc3C(N(C(=O)c3ccc(OC)cc3)c3ccccc3)CC2C)cc1` (centres unmarked) [Compound I-153]: the “Fold Induction Average” value was determined as 1 fold.

`CCCc1ccc(C(=O)N2c3c(C)cccc3C(Nc3ccccc3C)CC2C)cc1` (centres unmarked) [Compound I-157]: the “Fold Induction Average” value turned out to be 1 fold.

In the case of `Cc1cccc(C(=O)N2c3ccccc3C(N(C(=O)c3cccc(C)c3)c3ccccc3)CC2C)c1` (centres unmarked) [Compound I-164], the “Fold Induction Average” value is 1 fold.

For `CC1CC(Nc2ccccc2)c2ccccc2N1C(=O)CN1C(=O)CCC1=O` (centres unmarked) [Compound I-167], the “Fold Induction Average” value was 1 fold.

Regarding `Cc1ccc(NC2CC(C)N(C(=O)c3cccc(F)c3)c3ccc(C)cc32)cc1` (centres unmarked) [Compound I-174], the “Fold Induction Average” value is 1 fold.

`CC1CC(Nc2ccccc2)c2ccccc2N1C(=O)Nc1ccccc1` (centres unmarked) [Compound I-176]: the “Fold Induction Average” value stood at 268 fold.

Regarding `COc1ccc(C=CC(=O)N2c3ccccc3C(Nc3ccccc3)CC2C)cc1` (centres unmarked) [Compound I-177], the “Fold Induction Average” value is given as 126 fold.

For `CC1CC(N(C(=O)C(F)(F)F)c2ccccc2)c2ccccc2N1C(=O)C(F)(F)F` (centres unmarked) [Compound I-182], the “Fold Induction Average” value is given as 1 fold.

On to `CCCCCC(=O)N1c2ccccc2C(N(C(=O)c2ccccc2F)c2ccccc2)CC1C` (centres unmarked) [Compound I-186], for which the “Fold Induction Average” value was found to be 1 fold.

Consider `Cc1ccc(C(=O)N2c3c(C)cccc3C(Nc3ccccc3C)CC2C)cc1` (centres unmarked) [Compound I-187], for which the “Fold Induction Average” value is given as 1 fold.

For the compound `CC(=O)N(c1ccc(F)cc1)C1CC(C)N(C(=O)c2ccc(C)c(F)c2)c2ccc(F)cc21` (centres unmarked) [Compound I-195], the “Fold Induction Average” value was determined as 1 fold.

Turning to `Cc1cccc(C(=O)N2c3ccccc3C(Nc3ccccc3)CC2C)c1` (centres unmarked) [Compound I-198], the “Fold Induction Average” value is 135 fold.

Turning to `CC1CC(Nc2ccccc2)c2ccccc2N1C(=O)c1cccc(F)c1` (centres unmarked) [Compound I-199], the “Fold Induction Average” value was 147 fold.

As to `COc1cccc(C(=O)N2c3ccccc3C(Nc3ccccc3)CC2C)c1` (centres unmarked) [Compound I-200], the “Fold Induction Average” value came to 212 fold.

Staying with this data set, now noted: NIH3T3, read-out: Fold Induction Average, AA_3T3V1 Assay 33 μM.
In the case of `Cc1ccc(NC(=O)N2c3ccccc3[C@@H](Nc3ccccc3)C[C@H]2C)cc1` (relative stereo) [Compound I-214, cis-2-methyl-1-(4-methylphenylaminocarbonyl)-4-(4-phenylamino)-1,2,3,4-tetrahydroquinoline], the fold induction at 33 µM is 820.
